Measured values from patent US20100028889A1, “COMPANION DIAGNOSTIC ASSAYS FOR CANCER THERAPY” (ABBOTT LABORATORIES, priority 2006, published 2010).
Where two headings read alike, the source gives them in different places.

Columns and labels:
Assay in all cases: sensitivity of SCLC cell line, procedure of Oltersdorf
Format in all cases: cell-based
NCI-H345 = conditions: Homo sapiens, read-out: sensitivity class by EC50
Procedure: (§1) The following SCLC cell lines were obtained from ATCC (Manassis, Va.): NCI-H889, NCI-H1963, NCI-H1417, NCI-H146, NCI-H187, DMS53, NCI-H510, NCI-H209, NCI-H211, NCI-H345, NCI-H524, NCI-H69, DMS79, SHP77, NCI-H1688, NCI-H446, NCI-H740, NCI-H1048, NCI-H82, NCI-H196, SW1271, H69AR, NCI-H526, NCI-H865, NCI-H748, NCI-H711, and DMS114. All cells were cultured in the ATCC recommended media at 37° C. in a humidified atmosphere containing 5% CO2. The following leukemia and lymphoma cell lines were obtained from ATCC (Manassis, Va.): MV-4-11, RS4;11, Loucy, KG-1A, DOHH2, Rs11380, CCRF-HSB-2, CCRF-CEM, CEM/C1, Reh, SUP-B15, MOLT-4, SUDHL4, HL-60, RPMI 8226, A3, Daudi, WSU-NHL, Pfeiffer, Jurkat I 9.2, Jurkat, MEG-01, U-937, K-562, and Raji.
(§2) The 27 SCLC cell lines were tested for sensitivity to ABT-737 using the procedure described in Oltersdorf, T., “An inhibitor of Bcl-2 family proteins induces regression of solid tumours”, Nature, 435: 677-681, 2005, with a cell line classified as sensitive if its EC50<5 μM and as resistant if its EC50>5 µM. The sensitive cell line group consisted of NCI-H889, NCI-H1963, NCI-H1417, NCI-H146, DMS 53, NCI-H187, NCI-H510, NCI-H209, NCI-H345, NCI-H526, NCI-H211, NCI-H865, NCI-H524, NCI-H748, DMS 79, NCI-H69, NCI-H711, SHP 77, NCI-H1688, and the resistant cell line group was comprised of NCI-H446, NCI-H740, NCI-H1048, NCI-H82, NCI-H196, SW1271, DMS 114, and NCI-H69AR.
(§3) The 22 SCLC cell lines were tested for sensitivity to ABT-263 using the procedure described in Oltersdorf, T., “An inhibitor of Bcl-2 family proteins induces regression of solid tumours”, Nature, 435: 677-681, 2005, with a cell line classified as sensitive if its EC50<5 µM and as resistant if its EC50>5 μM. The sensitive cell line group consisted of NCI-H146, NCI-H889, NCI-H1963, NCI-H187, NCI-H1417, NCI-H211, NCI-H69, NCI-H209, NCI-H510, DMS 53, DMS 79, NCI-H345, NCI-H1048, SHP 77, NCI-H446 and the resistant cell line group was comprised of NCI-H1688, NCI-H740, NCI-H82, NCI-H69AR, SW1271, DMS 114 and NCI-H 196.

NCI-H146 = conditions: Homo sapiens, read-out: sensitivity class by EC50
Procedure: as §1, §2, §3

NCI-H1048 = conditions: Homo sapiens, read-out: sensitivity class by EC50
Procedure: as §1, §2, §3

NCI-H1688 = conditions: Homo sapiens, read-out: sensitivity class by EC50
Procedure: as §1, §2, §3

SHP 77 = conditions: Homo sapiens, SHP77, read-out: sensitivity class by EC50
Procedure: as §1, §2, §3

NCI-H1417 = conditions: Homo sapiens, read-out: sensitivity class by EC50
Procedure: as §1, §2, §3

NCI-H196 = conditions: Homo sapiens
Procedure: as §1, §2, §3

NCI-H69 = conditions: Homo sapiens, read-out: sensitivity class by EC50
Procedure: as §1, §2, §3

NCI-H211 = conditions: Homo sapiens, read-out: sensitivity class by EC50
Procedure: as §1, §2, §3

DMS 53 = conditions: Homo sapiens, read-out: sensitivity class by EC50
Procedure: as §1, §2, §3

NCI-H82 = conditions: Homo sapiens, read-out: sensitivity class by EC50
Procedure: as §1, §2, §3

NCI-H889 = conditions: Homo sapiens, read-out: sensitivity class by EC50
Procedure: as §1, §2, §3

DMS 79 = conditions: Homo sapiens, read-out: sensitivity class by EC50
Procedure: as §1, §2, §3

NCI-H69AR = conditions: Homo sapiens, read-out: sensitivity class by EC50
Procedure: as §1, §2, §3

NCI-H1963 = conditions: Homo sapiens, read-out: sensitivity class by EC50
Procedure: as §1, §2, §3

DMS 114 = conditions: Homo sapiens, read-out: sensitivity class by EC50
Procedure: as §1, §2, §3

SW1271 = conditions: Homo sapiens, read-out: sensitivity class by EC50
Procedure: as §1, §2, §3

NCI-H187 = conditions: Homo sapiens, read-out: sensitivity class by EC50
Procedure: as §1, §2, §3

NCI-H510 = conditions: Homo sapiens, read-out: sensitivity class by EC50
Procedure: as §1, §2, §3

NCI-H740 = conditions: Homo sapiens, read-out: sensitivity class by EC50
Procedure: as §1, §2, §3

NCI-H209 = conditions: Homo sapiens, read-out: sensitivity class by EC50
Procedure: as §1, §2, §3

NCI-H446 = conditions: Homo sapiens, read-out: sensitivity class by EC50
Procedure: as §1, §2, §3

Compound	EC50 (NCI-H345) [µM]	EC50 (NCI-H146) [µM]	EC50 (NCI-H1048) [µM]	EC50 (NCI-H1688) [µM]	EC50 (SHP 77) [µM]	EC50 (NCI-H1417) [µM]	EC50 (NCI-H69) [µM]	EC50 (NCI-H211) [µM]	EC50 (DMS 53) [µM]	EC50 (NCI-H82) [µM]	EC50 (NCI-H889) [µM]	EC50 (DMS 79) [µM]	EC50 (NCI-H69AR) [µM]	EC50 (NCI-H1963) [µM]	EC50 (DMS 114) [µM]	EC50 (SW1271) [µM]	EC50 (NCI-H187) [µM]	EC50 (NCI-H510) [µM]	EC50 (NCI-H740) [µM]	EC50 (NCI-H209) [µM]	further results
CC1(C)CCC(c2ccc(Cl)cc2)=C(CN2CCN(c3ccc(C(=O)NS(=O)(=O)c4ccc(N[C@H](CCN5CCOCC5)CSc5ccccc5)c(S(=O)(=O)C(F)(F)F)c4)cc3)CC2)C1 [ABT-263, N-(4-(4-((2-(4-chlorophenyl)-5,5-dimethyl-1-cyclohex-1-en-1-yl)methyl)piperazin-1-yl)benzoyl)-4-(((1R)-3-(morpholin-4-yl)-1-((phenylsulfanyl)methyl)propyl)amino)-3-((trifluoromethyl)sulfonyl)benzenesulfonamide]	< 5	< 5	< 5	> 5	< 5	< 5	< 5	< 5	< 5	> 5	< 5	< 5	> 5	< 5	> 5	> 5	< 5	< 5	> 5	< 5	EC50 (NCI-H196; NCI-H 196, read-out: sensitivity class by EC50): > 5 µM; EC50 (NCI-H446): < 5 µM
CN(C)CC[C@H](CSc1ccccc1)Nc1ccc(S(=O)(=O)NC(=O)c2ccc(N3CCN(Cc4ccccc4-c4ccc(Cl)cc4)CC3)cc2)cc1[N+](=O)[O-] [ABT-737, N-(4-(4-((4′-chloro(1,1′-biphenyl)-2-yl)methyl)piperazin-1-yl)benzoyl)-4-(((1R)-3-(dimethylamino)-1-((phenylsulfanyl)methyl)propyl)amino)-3-nitrobenzenesulfonamide]	< 5	< 5	> 5	< 5	< 5	< 5	< 5	< 5	< 5	> 5	< 5	< 5	> 5	< 5	> 5	> 5	< 5	< 5	> 5	< 5	EC50 (NCI-H196; read-out: sensitivity class by EC50): > 5 µM; EC50 (NCI-H446): > 5 µM
